Data on 2 compounds can be found in patent publication US20100028447A1, “Intranasal, Buccal, And Sublingual Administration Of Metanicotine Analogs” (TARGACEPT, INC., priority 2007, published 2010).

A short description of data set [1]: in vitro. Conditions: human, pH 7.4, Papp. The source says: An in vitro model of MatTek EpiAir® tissue was used for the permeability assessment of the test articles and control compounds. The EpiAir® culture consists of cells that have been cultured to form a pseudo-stratified, highly differentiated model closely resembling the epithelial tissue of the human respiratory tract. The histological cross-sections of the cultured tissue reveal a pseudo-stratified mucociliary phenotype.
EpiAir® tissues plated in 12 well plates were pre-equilibrated for the assay by culturing them for 24 hours at 37° C. with 5% CO2 in a humidified incubator. On the day of the assay, the cultures were washed two times with Dulbeccos' Phosphate Buffered Saline (DPBS buffer) at pH 7.4, and then dosed with donor and receiver buffer applied to the apical and basolateral surfaces of the culture, respectively. The receiver buffer consisted of DPBS, at pH 7.4. The donor solution consisted of DPBS buffer containing the appropriate compounds as specified in Table 1. All treatments were performed in triplicate. The receiver buffer was sampled at 15, 30, 60, and 120 minutes, and the donor buffer was sampled at 120 minutes.
The Lucifer Yellow concentration in the receiver samples was measured using a FluoStar fluorescence plate reader (BMG Laboratories, Durham, N.C.).
The apparent permeability coefficient, Papp, was calculated as follows: […]
where: dCr/dt is the slope of the cumulative concentration in the receiver compartment versus time; Vr is the volume of the receiver compartment; A is the surface area of epithelium available for permeation; and Co is the dosing solution concentration.

A short description of data set [2]: Brain-to-plasma ratio after oral gavage or intranasal administration (Example 4). It counts as in vivo, Sprague-Dawley rats. As for the experimental part: Eight treatment groups of nine rats each were used (see Study Design, Table 6). […] The animals were housed up to three per cage and identified by cage labels. A single room was used for this study. […] Food was withheld from the animals for a minimum of 12 hours before the study and during the study, and was returned at 4 hours post-dose. Water was supplied ad libitum during the study.
All dosing solutions were prepared in isotonic PBS (phosphate buffered saline) buffer at pH 7.4. […] For intranasal dosing, the animals were anesthetized with CO2 prior to dosing, and the solution was administered in a droplet from a pipette.
For each treatment group, brain and plasma samples were collected at 10, 30 and 60 minutes post-dose. Blood samples were placed in heparinized tubles and spun at 13,000 rpm for 5 minutes. The plasma was placed in polyethylene tubes and frozen (−60 to −80° C.). Brain samples were also placed in chilled tubes and frozen (−60 to −80° C.). Samples remained chilled during subsequent processing.
Brain samples were thawed and weighed. […] After homogenation, the volume of each sample was recorded and the samples were frozen at −80° C. until analysis.
Plastic tubes were used for all steps. Standards were prepared at concentrations of 1000, 500, 250, 100, 50, 10, 5 and 1 ng/mL by serial dilution. Quality control samples were also prepared at 500, 100, and 5 ng/mL. […] Brain standards and quality control samples were treated identically to the test compound samples.
Brain samples (200 μL) were loaded onto a 96 well plate and then transferred to 400 μL of pure acetonitrile (containing 10 ng/mL nicotine as an internal standard) in a Sirocco Protein Precipitation Plate (Waters Corporation). The resulting suspensions were mixed and then filtered into a clean 96-well collection plate using a vacuum. A 200 μL aliquot of the resulting filtrate was then transferred to plastic HPLC vials for analysis.
Plasma samples (50 μL) were loaded onto a 96 well plate and then transferred to 150 μL of pure acetonitrile (containing 10 ng/mL nicotine as an internal standard) in a Sirocco Protein Precipitation Plate (Waters Corporation). The resulting suspensions were mixed and then filtered into a clean 96-well collection plate using a vacuum. A 80 μL aliquot of the resulting filtrate was then transferred to plastic HPLC vials for analysis.
Brain samples (200 μL) were loaded onto a 96 well plate and then transferred to 400 μL of acetonitrile containing internal standard (100 ng/mL Pindolol) in a Sirocco Protein Precipitation Plate (Waters Corporation). The resulting suspensions were mixed and then filtered into a clean 96-well collection plate using a vacuum. The resulting filtrates were then evaporated to dryness under nitrogen at 37° C. The resulting residues were reconstituted with 200 μL of water. The samples were then mixed, centrifuged, and transferred (100 μL) to plastic HPLC vials for analysis.
Brain samples (50 μL) were loaded onto a 96 well plate and then transferred to 150 μL of acetonitrile containing internal standard (100 ng/mL Pindolol) in a Sirocco Protein Precipitation Plate (Waters Corporation). The resulting suspensions were mixed and then filtered into a clean 96-well collection plate using a vacuum. The resulting filtrates were then evaporated to dryness under nitrogen at 37° C. The resulting residues were reconstituted with 100 μL of water. The samples were then mixed, centrifuged, and transferred (100 μL) to plastic HPLC vials for analysis.

Setting [3] is: Sprague-Dawley, rat, in vivo, 10 mg/kg, Brain-to-Plasma Ratio.
[4] abbreviates: Sprague-Dawley, rat, in vivo, 10 mg/kg, Mean Ratio (brain-to-plasma).
Setting [5] is: Sprague-Dawley, rat, in vivo, intranasal, 1 mg/kg, Average brain-to-plasma ratio.
Setting [6] is: Sprague-Dawley, rat, in vivo, po, 5 mg/kg, Average brain-to-plasma ratio.

Where “and” joins values, the source holds several entries; their conditions need not be identical. Equal entries are not always repeated. Where two headings read alike, the source gives them in different places.

On to `CN[C@@H](C)C/C=C/c1cncc(OC)c1` [Compound A, (2S)-(4E)-N-methyl-5-(3-(5-methoxypyridin)yl)-4-penten-2-amine], for which the apparent permeability (Papp) at 120 min in data set [1] came to 25.1 ×10⁻⁶ cm/s. In addition, the “Plasma Conc.” value was 216 ng/mL and 278 ng/mL in data set [2] (Group 1, OG, 10 mg/kg, 30 min, 10 mg/kg); 239 ng/mL and 234 ng/mL in data set [2] (Group 1, OG, 10 mg/kg, 60 min, 10 mg/kg); 327 ng/mL and 249 ng/mL in data set [2] (Group 3, OG, 10 mg/kg, 10 min, 10 mg/kg). In addition, the Kp at 0.5 h in data set [2] (setting [3]) was 0.044; in data set [2] (setting [4]), 0.042; in data set [2] (Sprague-Dawley, rat, in vivo, intranasal, 0.1 mg/kg, Brain-to-plasma ratio), 5.52; in data set [2] (setting [5]) it was 4.28; in data set [2] (setting [6]), 2.37. In addition, the Kp at 1 h in data set [2] (setting [3]) is 0.038; in data set [2] (setting [4]), 0.032; in data set [2] (setting [5]) it was 6.4; in data set [2] (setting [6]) it was 3.38. The concentration at 30 min in data set [2] (Sprague-Dawley, rat, in vivo, 10 mg/kg, Group 1, OG, 10 mg/kg, 30 min, read-out: Brain Conc.) was 2.04 ng/mL and 9.6 ng/g; in data set [2] (Sprague-Dawley, rat, in vivo, 10 mg/kg, Group 1, OG, 10 mg/kg, 30 min, read-out: Plasma Conc.) it was 174 ng/mL. The concentration at 60 min in data set [2] (Sprague-Dawley, rat, in vivo, 10 mg/kg, Group 1, OG, 10 mg/kg, 60 min, read-out: Brain Conc.) is 1.26 ng/mL and 6.08 ng/g; in data set [2] (Sprague-Dawley, rat, in vivo, 10 mg/kg, Group 1, OG, 10 mg/kg, 60 min, read-out: Plasma Conc.), 158 ng/mL; in data set [2] (Sprague-Dawley, rat, in vivo, 10 mg/kg, Group 2, OG, 10 mg/kg, 60 min, read-out: Brain Conc.) it was 2.81 ng/mL and 13.9 ng/g. Further, in data set [2] (Sprague-Dawley, rat, in vivo, 10 mg/kg, Group 3, OG, 10 mg/kg, 10 min, read-out: Plasma Conc.), the concentration at 10 min amounted to 313 ng/mL. The Kp at […] is 0.039 in data set [2] (setting [4]); 2.21 in data set [2] (Sprague-Dawley, rat, in vivo, intranasal, 0.1 mg/kg, Brain-to-plasma ratio (average value)); 1.58 in data set [2] (setting [5]); 1.75 in data set [2] (setting [6]). Also, the “Exposures in plasma and brain, Compound A compared with Compound B” value in data set [2] (by both intranasal and oral administration) is “much greater”. The “Brain-to-plasma ratios, intranasal as opposed to oral gavage administration” value in data set [2] (rat, in vivo) was “generally greater”.

Turning to `CNCC/C=C/c1cccnc1` [Compound B, N-methyl-(4-pyridin-3-yl-but-3-enyl)-amine], the Papp at 120 min in data set [1] (Treatment 1: Compound B assayed with controls, Average ± STD) came out at 18.3 ± 0.28 ×10⁻⁶ cm/s; in data set [1] (Treatment 1: Compound B assayed with controls, Rep 1), 18.5 ×10⁻⁶ cm/s; in data set [1] (Treatment 1: Compound B assayed with controls, Rep 2) it was 18 ×10⁻⁶ cm/s; in data set [1] (Treatment 1: Compound B assayed with controls, Rep 3) it was 18.4 ×10⁻⁶ cm/s; in data set [1] (Treatment 2: Compound B assayed with controls + MAO inhibitor Pargyline, Average ± STD) it was 25.4 ± 0.41 ×10⁻⁶ cm/s; in data set [1] (Treatment 2: Compound B assayed with controls + MAO inhibitor Pargyline, Rep 1) it was 25.1 ×10⁻⁶ cm/s. Moreover, the apparent permeability coefficient (Papp) at 120 min in data set [1] (Treatment 2: Compound B assayed with controls + MAO inhibitor Pargyline, Rep 2) is 25.9 ×10⁻⁶ cm/s; in data set [1] (Treatment 2: Compound B assayed with controls + MAO inhibitor Pargyline, Rep 3), 25.2 ×10⁻⁶ cm/s. The Kp at […] was 0.89 in data set [2] (Sprague-Dawley, rat, in vivo, inhaled or intranasal, 1 mg/kg, intranasal 1 mg/kg with pargyline, 10 minute time point, two animals, read-out: Brain-to-plasma ratio (average value)) and 1.09 in data set [2] (Sprague-Dawley, rat, in vivo, inhaled or intranasal, 1 mg/kg, intranasal 1 mg/kg without pargyline, 10 minute time point, two animals, read-out: Brain-to-plasma ratio (average value)). Besides, the Kp at 0.5 h in data set [2] (Sprague-Dawley, rat, in vivo, inhaled or intranasal, 1 mg/kg, intranasal 1 mg/kg with pargyline, 30 minute time point, one animal, read-out: Brain-to-plasma ratio) was found to be 0.21. For the same compound, the Kp in data set [2] (Sprague-Dawley, rat, in vivo, po, 10 mg/kg, oral gavage administration, two animals, both at the minute time point) was determined as 0.22.
